The viability is a read-out of living cells in per cent, often relative to untreated cells.

A short description of this series: in vitro. The note with it: human, hela cells, % viability.

Turning to `Cc1cc(F)c(S(=O)(=O)N2CCN(C)CC2)cc1NC(=O)c1cc2ccccc2o1` [CBK034419C], the viability at 28.5 h, 10 µM was determined as 94%.
`CSCCN1CCCN(c2nccc(OCC3COc4ccccc4O3)n2)CC1` (centres unmarked) [CBK083978]: the viability at 28.5 h, 10 µM came to 91.1%.
As for `O=C(Nc1cccc(NS(=O)(=O)c2ccc(Cl)cc2)c1)c1ccco1` [CBK265956], the viability at 28.5 h, 10 µM came out at 91.2%.
The same measure, in the same setting: in the case of `Cc1cc(C)cc(N(C(C)C(=O)Nc2ccc(C(F)(F)F)cc2)S(C)(=O)=O)c1` (centres unmarked) [CBK268834] it was 89.6%.
`CCOc1ccc(N2C(=O)CC(N3CCN(c4ccc(C(=O)c5ccncc5)cc4)CC3)C2=O)cc1` (centres unmarked) [CBK269124]: the viability at 28.5 h, 10 µM was 86.5%.
On the same count and under the same terms, in the case of `O=C(Nc1ccc(O)c(C(=O)O)c1)c1ccc2c(c1)C(=O)N(CC1CCCO1)C2=O` (centres unmarked) [CBK268280] it was 101%.
As to `Cc1csc(C(Cc2cccs2)NC(=O)C2CCC(=O)N2)n1` (centres unmarked) [CBK285056], the viability at 28.5 h, 10 µM came to 104%.
`N#CC1(c2ccccc2)CCN(C(=O)c2ccc(S(N)(=O)=O)cc2)CC1` [CBK091397]: the viability at 28.5 h, 10 µM (bulk resorufin, single well) was determined as 96.5%.
On the same count and under the same terms, in the case of `NC(=O)Cn1cc(C(=O)COc2ccccc2)c2ccccc21` [CBK267650] it was 95.2%.
Consider `c1csc(CNc2cncc(-c3ccncc3)n2)c1` [CBK065238], for which the viability at 28.5 h, 10 µM is 97.3%.
Same read-out and setting: in the case of `Cc1nnc(SCC(=O)Nc2cc(C(F)(F)F)ccc2N2CCOCC2)o1` [CBK266815] it was 109%; in that of `CN(C)Cc1cn([C@H]2CO[C@H]3[C@@H]2OC[C@@H]3NC(=O)NC2CCCCC2)nn1` [CBK289493], 88.9%.
Still for that read-out and setting: in the case of `O=C(NCC1CCCO1)c1cc(S(=O)(=O)N2CCOCC2)c(Cl)cc1Cl` (centres unmarked) [CBK269691] it was 90.3%; in that of `O=S(=O)(NC1CCCCC1Sc1nnc(Nc2ccccc2)s1)c1ccccc1` (centres unmarked) [CBK266378], 96.7%.
The same measure, in the same setting: in the case of `COCC(=O)N1CCC(c2cc3nc(C(F)(F)F)ccc3[nH]2)CC1` [CBK282185] it was 110%; in that of `O=c1cc(CN2CCCc3ccccc32)[nH]c(=O)[nH]1` [CBK138331], 95.1%.
Regarding `CCN1CCN(Cc2c(C(C)(C)C)[nH]c3ncccc23)CC1` [CBK285341], the viability at 28.5 h, 10 µM worked out at 106%.
On the same count and under the same terms, in the case of `O=C(CCc1ccccc1)N/N=C/c1cc2c(cc1[N+](=O)[O-])OCO2` [CBK261221] it was 111%; in that of `COc1cc2c(cc1OC)C(c1ccc(C(=O)O)cc1)NCC2` (centres unmarked) [CBK286738], 90.2%.
Take `COc1ccc(N2CC(C(=O)Nc3ccc(C(=O)O)cc3)CC2=O)cc1` (centres unmarked) [CBK268782]: the viability at 28.5 h, 10 µM is 88%.
Turning to `CC(C)(C)C(=O)NCCN1CCC(O)(c2ccc(F)cc2)CC1` [CBK283262], the viability at 28.5 h, 10 µM was 92%.
Same read-out and setting: in the case of `COc1ccc(CN(Cc2ccc(NC(C)=O)cc2)[C@@H]2COC[C@H]2c2ccc(F)cc2)cc1` [CBK286488] it was 105%; in that of `CCC(C)NCc1cccc(Oc2ncccn2)c1` (centres unmarked) [CBK288090], 106%.
On to `Cc1cnc(C(=O)N[C@H]2C3CCCCC3[C@@H]2c2ccccc2)cn1` (some centres unmarked) [CBK285125], for which the viability at 28.5 h, 10 µM is 102%.
With `c1ccc(C(Oc2nccnc2-c2ccncc2)c2ccccc2)cc1` [CBK106728], the viability at 28.5 h, 10 µM was 89.1%.
Take `COc1ccc(C(=O)C2=C(O)C(=O)N(Cc3cccnc3)C2c2ccc(OC)cc2OC)c(C)c1` (centres unmarked) [CBK264928]: the viability at 28.5 h, 10 µM came out at 89.7%.
The same measure, in the same setting: in the case of `OCc1cccc(-c2cncc(Nc3ccccc3)n2)c1` [CBK065576] it was 97.4%.
The same measure, in the same setting: in the case of `CNCc1cccc(OC)c1OCc1ccccc1F` [CBK269949C] it was 99.2%; in that of `COc1cc(/C=C/C(=O)NCc2ccccn2)cc(OC)c1OC` [CBK264752], 91.5%.
For `Cc1nn(C)c(C)c1CCC(=O)OCc1cc(=O)n2ccccc2n1` [CBK305690], the viability at 28.5 h, 10 µM was 90.8%.
On the same count and under the same terms, in the case of `O=C(Cn1ncc2ccccc2c1=O)N1CCC(c2ccccc2)C1` (centres unmarked) [CBK281843] it was 90.7%; in that of `COCCN1CCn2c(nc3cc(NC(=O)c4ccco4)ccc32)C1` [CBK267990], 88.2%; in that of `CC(C)c1ccc(SCCc2ccccn2)cc1` [CBK026575C], 88.8%.
The same measure, in the same setting: in the case of `OCc1ccccc1-c1nccnc1NCc1ccc2c(c1)OCO2` [CBK038046] it was 95.7%; in that of `O=C(OCCC1SC(NC2CC3C=CC2C3)=NC1=O)c1cc(C(F)(F)F)ccc1C(F)(F)F` (centres unmarked) [CBK200058T], 88.1%; in that of `CC(=O)N1CC[C@H]2NC(=O)CNC(=O)C3(CCCC[C@H]2C1)CCN(C(=O)CC1CCOCC1)CC3` [CBK292030], 92.9%.
Regarding `COC(=O)c1cscc1NC(=O)c1cnc(-c2ccc(Cl)cc2)c(-c2ccco2)c1` [CBK036657], the viability at 28.5 h, 10 µM came to 104%.
Same read-out and setting: in the case of `COc1ccc2cc(C(=O)NCCCc3ccccn3)n(C)c2c1` [CBK282545] it was 103%.
Turning to `c1ccc2c(c1)CC(Oc1cncc(N3CCNCC3)n1)C2` [CBK000242G], the viability at 28.5 h, 10 µM was 106%.
On to `O=C1CC(c2ccc(Cl)cc2)CC(=O)C1=CNCCN1CCN(C(=O)Nc2ccccc2)CC1` (centres unmarked) [CBK263671], for which the viability at 28.5 h, 10 µM was 95.3%.
Turning to `CCn1nc(-c2ccc(C)o2)nc1CC1NC(=O)c2ccccc21` (centres unmarked) [CBK306834], the viability at 28.5 h, 10 µM came to 87%.
`O=S(=O)(Nc1nnn[nH]1)c1ccc(-c2ccon2)s1` [CBK062391]: the viability at 28.5 h, 10 µM turned out to be 97.7%.
For the compound `N#C/C(=C\c1ccc(-c2ccc(C(=O)O)c(O)c2)o1)c1nc2ccccc2[nH]1` [CBK262121], the viability at 28.5 h, 10 µM turned out to be 91.7%.
Consider `O=C1CCC(=O)N1CCOc1nccnc1N1CCN(CCCn2c(=O)[nH]c3ccccc32)CC1` [CBK084300], for which the viability at 28.5 h, 10 µM worked out at 110%.
Take `Cn1cc2c(n1)CC1CCC2N1C(=O)c1ccc(F)c(F)c1` (centres unmarked) [CBK281691]: the viability at 28.5 h, 10 µM was 92.6%.
The same measure, in the same setting: in the case of `Cc1cc(C)n(C2CCN(Cc3c(C)nc4ccccn34)CC2)n1` [CBK281614] it was 83.4%; in that of `CCc1nn(Cc2ccncc2)c(=O)c2cc3sc(C)cc3n12` [CBK284140], 85.7%.
Still for that read-out and setting: in the case of `Cc1ccc(-c2nccnc2OCCN2C(=O)c3ccccc3C2=O)c(C)c1` [CBK106981] it was 90%.
Turning to `COc1cc(OC)nc(CN2CCOC3(CCN(C(=O)OCc4ccccc4)CC3)C2)n1` [CBK161101T], the viability at 28.5 h, 10 µM amounted to 96.2%.
On the same count and under the same terms, in the case of `COc1ccccc1-c1cc(Nc2ccc(NS(=O)(=O)c3ccc(C)cc3)cc2)ncn1` [CBK037819] it was 113%.
Still for that read-out and setting: in the case of `COc1ccc(-c2noc(-c3cnccn3)n2)c(OC)c1` [CBK287878] it was 83.6%; in that of `Cc1ccc(/C(N)=N/OC(=O)COc2cccc3ccccc23)cc1` [CBK263009], 98.5%; in that of `O=C(CCCN1C(=O)c2cccc3cccc(c23)C1=O)NCc1cccnc1` [CBK262190], 73.9%.
The same measure, in the same setting: in the case of `C=C(C)Cn1c(SCC(C)C)nnc1-c1ccc(O)nc1` [CBK200094] it was 92.2%; in that of `Cn1cc(CC(=O)N2CCCc3ccccc32)c2ccccc21` [CBK200349], 64.8%.
For the compound `C/C(C(=O)O)=C(/C)C(=O)N1CCC2(CC1)NCCc1c2[nH]c2ccc(C)cc12` [CBK047026], the viability at 28.5 h, 10 µM came to 100%.
